Data set [1] has as its system O=C[C@H](O)[C@H](O)COP(=O)(O)O. Nature of the data set: DAHP formation kinetics, wild-type S. typhimurium KDPGal aldolase (Table 10). The settings on record: other: purified as GST fusion protein; pH 7.5. It counts as biochemical, Salmonella typhimurium. As for the experimental part: (§1) Enzyme activity is measured by following the formation of 3-dehydroshikimic acid (DHS) over time when DHQ synthase (3-dehydroquinate synthase, E.C. 4.2.3.4) and DHQ dehydratase (E.C. 4.2.1.10) are utilized as coupling enzymes. DHQ synthase is prepared as described in Frost, J. W. et al., Biochemistry, 1984, 23, 4470-75; DHQ dehydratase is purified from E. coli AB2848/pKD201 The reaction (1 mL) contains 50 mM morpholinepropanesulfonic acid (MOPS) buffer (pH 7.5), 1 mM D-erythrose 4-phosphate, 1 mM pyruvate, 50 μM CoCl2, 10 μM NAD, 1 U of DHQ synthase, 1 U of DHQ dehydratase and cellular lysate. The reaction is initiated by addition of diluted cellular lysate to the assay solution, and the absorbance at 234 nm monitored continuously for 5 min. One unit of evolved enzyme activity is defined by the formation of one μmol of DHS per minute.

The target of data set [2] is S. typhimurium KDPGal aldolase (DgoA) variant ST04-5 (D20E, V28M, S42T, I89T, P150L, D178G; parent SEQ ID NO:6), GST fusion protein (Salmonella enterica, UniProt A0A0H3NU26, D178G/D20E/I89T/P150L/S42T/V28M). Nature of the data set: DAHP formation kinetics, evolved variant ST04-5 (Table 10). The format is biochemical. The settings on record: purified as GST fusion protein. As for the experimental part:
as §1, with “The reaction is initiated by addition of diluted cellular lysate to the assay solution, and the absorbance at 234 nm monitored continuously for 5 min.” left out

The test system of data set [3] is chimeric KDPGal aldolase (DgoA) variant NR8.165-2 (family shuffling of EC03-1, KP03-3 and ST04-5), GST fusion protein. Nature of the data set: DAHP formation kinetics, family-shuffled variant NR8.165-2 (Table 10). It counts as biochemical, chimera of E. coli, K. pneumoniae and S. typhimurium. As for the experimental part: as §1
(§2) The the dgoA mutants, EC03-1, KP03-3 and ST04-5, were subjected to DNA family shuffling using the single-stranded DNA shuffling method developed by Zhao and coworkers: Zha, W; Zhu, T; Zhao, H., Methods Mol. Biol. 2003, 231, 91-97. […] The dgoA gene hybrids from the five largest colonies that appeared after 2.5 days were sequenced and their encoding KDPGal aldolase activities toward DAHP formation were determined as shown in Table 9.

The subject of data set [4] is E. coli native DAHP synthase AroH. The following applies: Akowski & Bauerle 1997, cited from earlier work.
Data set [5] has as its system chimeric KDPGal aldolase (DgoA) variant NR8.165-4 (family shuffling of EC03-1, KP03-3 and ST04-5), GST fusion protein. Nature of the data set: DAHP formation kinetics, family-shuffled variant NR8.165-4 (Table 10). The format is biochemical, chimera of E. coli, K. pneumoniae and S. typhimurium. As for the experimental part:
as §1, §2

Data set [6] relates to E. coli native DAHP synthase AroF. The settings on record: Ramilo & Evans 1997, cited from earlier work.
The subject of data set [7] is E. coli native DAHP synthase AroG. The settings on record: Sheflyan et al. 1998, cited from earlier work.
The subject of data set [8] is chimeric KDPGal aldolase (DgoA) variant NR8.165-6 (family shuffling of EC03-1, KP03-3 and ST04-5), GST fusion protein. Description: DAHP formation kinetics, family-shuffled variant NR8.165-6 (Table 10). The format is biochemical, chimera of E. coli, K. pneumoniae and S. typhimurium. On the procedure: as §1, §2
The test system of data set [9] is O=C[C@H](O)[C@H](O)COP(=O)(O)O. Nature of the data set: DAHP formation kinetics, wild-type K. pneumoniae KDPGal aldolase (Table 10). The settings on record: other: purified as GST fusion protein; pH 7.5. It counts as biochemical, Klebsiella pneumoniae. On the procedure:
as §1

The test system of data set [10] is O=C[C@H](O)[C@H](O)COP(=O)(O)O. Description: DAHP formation kinetics, evolved variant ST04-5 (Table 10). The format is biochemical, Salmonella typhimurium. The settings on record: other: purified as GST fusion protein; pH 7.5. On the procedure:
as §1, with “The reaction is initiated by addition of diluted cellular lysate to the assay solution, and the absorbance at 234 nm monitored continuously for 5 min.” left out

Substrate in data set [11]: O=C[C@H](O)[C@H](O)COP(=O)(O)O
Nature of the data set: DAHP formation kinetics, evolved variant EC03-1 (Table 10). The format is biochemical, Escherichia coli. The settings on record: other: purified as GST fusion protein; pH 7.5. On the procedure:
as §1, with “1 U of DHQ dehydratase and cellular lysate. The reaction is initiated by addition of diluted cellular lysate to the assay solution, and the absorbance at 234 nm monitored continuously for 5 min.” left out

Substrate in data set [12]: O=C[C@H](O)[C@H](O)COP(=O)(O)O
Description: DAHP formation kinetics, wild-type E. coli KDPGal aldolase (Table 10). The settings on record: other: purified as GST fusion protein; pH 7.5. It counts as biochemical, Escherichia coli. As for the experimental part: as §1, with “1 U of DHQ dehydratase and cellular lysate. The reaction is initiated by addition of diluted cellular lysate to the assay solution, and the absorbance at 234 nm monitored continuously for 5 min.” left out

[13] abbreviates: purified as GST fusion protein, read-out: Km (E4P).
Where [14] appears, read: relative to parent enzymes EC03-1 and ST04-5.
The mark [15] stands for this setting: read-out: Km for D-erythrose 4-phosphate.
Setting [16] is: compared with the wild-type E. coli KDPGal aldolase.

Substitutions are numbered along the chain they refer to. Numbers in names are those of the source.

S. typhimurium KDPGal aldolase (DgoA) variant ST04-5 (D20E, V28M, S42T, I89T, P150L, D178G; parent SEQ ID NO:6), GST fusion protein, sequence (A0A0H3NU26 whole entry D178G/D20E/I89T/P150L/S42T/V28M, the tested form may be a part): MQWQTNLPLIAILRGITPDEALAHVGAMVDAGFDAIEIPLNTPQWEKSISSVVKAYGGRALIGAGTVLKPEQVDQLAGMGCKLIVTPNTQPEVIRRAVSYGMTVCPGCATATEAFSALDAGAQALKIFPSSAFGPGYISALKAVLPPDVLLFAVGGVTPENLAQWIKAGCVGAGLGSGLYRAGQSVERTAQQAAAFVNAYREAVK

In general, Km refers to the substrate concentration at which the rate is half of its maximum. With “Salmonella typhimurium KDPGal aldolase (DgoA), wild type, SEQ ID NO:6, GST fusion protein (Salmonella enterica subsp. enterica serovar Typhimurium str. SL1344)”, the Michaelis-Menten constant (Km) in data set [1] amounted to 685 µM.

Broadly, the kcat is the number of substrate molecules converted per active site and unit of time at saturation. As usually defined, the kcat/Km is the turnover number divided by the Michaelis constant. In the case of `O=C[C@H](O)[C@H](O)COP(=O)(O)O` [E4P, D-erythrose 4-phosphate], the turnover number (kcat) in [2] is 3.24 s⁻¹; in [3] (purified as GST fusion protein), 2.51 s⁻¹; in data set [4], 20.6 s⁻¹; in [5] (purified as GST fusion protein) it was 4.76 s⁻¹; in [6], 29.5 s⁻¹; in [7], 10.3 s⁻¹. Besides, the kcat in data set [8] (purified as GST fusion protein) is 0.504 s⁻¹. Further, the kcat/Km in data set [2] is 27200 M⁻¹ s⁻¹; in data set [3] (purified as GST fusion protein) it was 16000 M⁻¹ s⁻¹; in [5] (purified as GST fusion protein) it was 41400 M⁻¹ s⁻¹; in data set [8] (purified as GST fusion protein), 6300 M⁻¹ s⁻¹. Further, the Michaelis constant (Km) in [3] (setting [13]) was 157 µM; in data set [4] (setting [15]), 35 µM; in data set [5] (setting [13]) it was 115 µM; in [6] (setting [15]), 81.4 µM; in [7] (setting [15]), 141 µM; in data set [8] (setting [13]), 80 µM. In addition, the “kcat/Km relative to parent enzymes” value in [3] (setting [14]) and in data set [8] (setting [14]) was “decrease in kcat/Km values relative to their parent enzymes” throughout. The molecule further yielded an increase in kcat in data set [5] (setting [16]) of 5 fold. Also, the “increase in kcat/Km” value in data set [5] (setting [16]) was determined as 25 fold. Besides, the “reduction in Km for D-erythrose 4-phosphate” value in [5] (setting [16]) was found to be 5 fold.

Turning to “Klebsiella pneumoniae KDPGal aldolase (DgoA), wild type, SEQ ID NO:4, GST fusion protein (Klebsiella pneumoniae subsp. pneumoniae MGH 78578)”, in data set [9], the Michaelis-Menten constant (Km) amounted to 1507 µM.

For the molecule “S. typhimurium KDPGal aldolase (DgoA) variant ST04-5 (D20E, V28M, S42T, I89T, P150L, D178G; parent SEQ ID NO:6), GST fusion protein (Salmonella enterica subsp. enterica serovar Typhimurium str. SL1344; D178G/D20E/I89T/P150L/S42T/V28M)”, the Km in data set [10] worked out at 119 µM.

B1: E. coli KDPGal aldolase (DgoA) variant EC03-1 (F33I, D58N, Q72H, A75V, V85A, V154F; parent SEQ ID NO:2), GST fusion protein (Escherichia coli K-12; … (protein)
chain: MQWQTKLPLIAILRGITPDEALAHVGAVIDAGIDAVEIPLNSPQWEQSIPAIVDAYGNKALIGAGTVLKPEHVDVLARMGCQLIATPNIHSEVIRRAVGYGMTVCPGCATATEAFTALEAGAQALKIFPSSAFGPQYIKALKAVLPSDIAVFAFGGVTPENLAQWIDAGCAGAGLGSDLYRAGQSVERTAQQAAAFVKAYREAVQ
Consider B1, for which, in data set [11], the Michaelis-Menten constant (Km) came out at 124 µM, the catalytic constant (kcat) stood at 2.49 s⁻¹ and the catalytic efficiency (kcat/Km) came out at 20100 M⁻¹ s⁻¹.

B2: Escherichia coli KDPGal aldolase (DgoA), wild type, SEQ ID NO:2, GST fusion protein (Escherichia coli K-12) (protein)
chain: B1 chain with I33F, N58D, H72Q, V75A, A85V, F154V
On to B2, for which, in data set [12], the Michaelis constant (Km) is 571 µM, the kcat came out at 0.94 s⁻¹ and the catalytic efficiency (kcat/Km) was determined as 1650 M⁻¹ s⁻¹.

The values are drawn from patent publication US8372621B2, “Methods and materials for the production of shikimic acid” (priority 2003, dated 2013).
